Measured values taken from ChEMBL document CHEMBL1154064, “Synthesis and DNA cleavage activity of 2-hydrazinyl-1,4,5,6-tetrahydropyrimidine containing hydroxy group” (2009).

What was measured:
Nucleic Acid [1] = experiment: Binding affinity to Escherichia coli pUC19 DNA assessed as form 1 DNA level at 0.320 mM after 13.07 hrs by agarose gel electrophoresis; type: nucleic-acid assay
Nucleic Acid [2] = experiment: Binding affinity to Escherichia coli pUC19 DNA assessed as form 2 DNA level at 0.463 mM after 7.08 hrs by agarose gel electrophoresis; type: nucleic-acid assay
Nucleic Acid [3] = experiment: Binding affinity to Escherichia coli pUC19 DNA assessed as form 2 DNA level at 0.320 mM after 9.07 hrs by agarose gel electrophoresis; type: nucleic-acid assay
Nucleic Acid [4] = experiment: Binding affinity to Escherichia coli pUC19 DNA assessed as form 1 DNA level at 0.698 mM after 13.07 hrs by agarose gel electrophoresis; type: nucleic-acid assay
Nucleic Acid [5] = experiment: Binding affinity to Escherichia coli pUC19 DNA assessed as form 2 DNA level at 0.175 mM after 23.12 hrs by agarose gel electrophoresis; type: nucleic-acid assay
Nucleic Acid [6] = experiment: Binding affinity to Escherichia coli pUC19 DNA assessed as form 1 DNA level at 0.463 mM after 15 hrs by agarose gel electrophoresis; type: nucleic-acid assay
Nucleic Acid [7] = experiment: Binding affinity to Escherichia coli pUC19 DNA assessed as form 1 DNA level at 0.175 mM after 13.07 hrs by agarose gel electrophoresis; type: nucleic-acid assay
Nucleic Acid [8] = experiment: Binding affinity to Escherichia coli pUC19 DNA assessed as form 1 DNA level at 0.698 mM after 9.07 hrs by agarose gel electrophoresis; type: nucleic-acid assay
Nucleic Acid [9] = experiment: Binding affinity to Escherichia coli pUC19 DNA assessed as form 2 DNA level at 0.320 mM by agarose gel electrophoresis; type: nucleic-acid assay
Nucleic Acid [10] = experiment: Binding affinity to Escherichia coli pUC19 DNA assessed as form 2 DNA level at 0.320 mM after 27.33 hrs by agarose gel electrophoresis; type: nucleic-acid assay
Nucleic Acid [11] = experiment: Binding affinity to Escherichia coli pUC19 DNA assessed as form 2 DNA level at 0.698 mM after 4.95 hrs by agarose gel electrophoresis; type: nucleic-acid assay
HeLa [12] = experiment: Growth inhibition of human HeLa cells at 10 uM after 72 hrs by MTT assay; type: functional; design: scale not given: the % may be the effect or the level left
Nucleic Acid [13] = experiment: Binding affinity to Escherichia coli pUC19 DNA assessed as form 1 DNA level at 0.463 mM after 7.08 hrs by agarose gel electrophoresis; type: nucleic-acid assay
Nucleic Acid [14] = experiment: Binding affinity to Escherichia coli pUC19 DNA assessed as form 1 DNA level at 0.698 mM after 23.12 hrs by agarose gel electrophoresis; type: nucleic-acid assay
Nucleic Acid [15] = experiment: Binding affinity to Escherichia coli pUC19 DNA assessed as form 1 DNA level at 0.175 mM after 23.12 hrs by agarose gel electrophoresis; type: nucleic-acid assay
Nucleic Acid [16] = experiment: Binding affinity to Escherichia coli pUC19 DNA assessed as form 2 DNA level at 0.320 mM after 13.07 hrs by agarose gel electrophoresis; type: nucleic-acid assay
Nucleic Acid [17] = experiment: Binding affinity to Escherichia coli pUC19 DNA assessed as form 2 DNA level at 0.175 mM after 4.95 hrs by agarose gel electrophoresis; type: nucleic-acid assay
Nucleic Acid [18] = experiment: Binding affinity to Escherichia coli pUC19 DNA assessed as form 2 DNA level at 0.698 mM by agarose gel electrophoresis; type: nucleic-acid assay
Nucleic Acid [19] = experiment: Binding affinity to Escherichia coli pUC19 DNA assessed as form 1 DNA level at 0.698 mM after 4.95 hrs by agarose gel electrophoresis; type: nucleic-acid assay
Nucleic Acid [20] = experiment: Binding affinity to Escherichia coli pUC19 DNA assessed as form 2 DNA level at 0.463 mM after 4.42 hrs by agarose gel electrophoresis; type: nucleic-acid assay
HL-60 [21] = experiment: Growth inhibition of human HL60 cells at 10 uM after 72 hrs by MTT assay; type: functional; design: scale not given: the % may be the effect or the level left
Nucleic Acid [22] = experiment: Binding affinity to Escherichia coli pUC19 DNA assessed as form 1 DNA level at 0.698 mM by agarose gel electrophoresis; type: nucleic-acid assay
HeLa [23] = experiment: Growth inhibition of human HeLa cells at 1000 uM after 72 hrs by MTT assay; type: functional; design: scale not given: the % may be the effect or the level left
Nucleic Acid [24] = experiment: Binding affinity to Escherichia coli pUC19 DNA assessed as form 2 DNA level at 0.463 mM after 15 hrs by agarose gel electrophoresis; type: nucleic-acid assay
Nucleic Acid [25] = experiment: Binding affinity to Escherichia coli pUC19 DNA assessed as form 1 DNA level at 0.175 mM by agarose gel electrophoresis; type: nucleic-acid assay
Nucleic Acid [26] = experiment: Binding affinity to Escherichia coli pUC19 DNA assessed as form 2 DNA level at 0.320 mM after 4.95 hrs by agarose gel electrophoresis; type: nucleic-acid assay
Nucleic Acid [27] = experiment: Binding affinity to Escherichia coli pUC19 DNA assessed as form 2 DNA level at 0.698 mM after 13.07 hrs by agarose gel electrophoresis; type: nucleic-acid assay
Nucleic Acid [28] = experiment: Binding affinity to Escherichia coli pUC19 DNA assessed as form 1 DNA level at 0.320 mM after 4.95 hrs by agarose gel electrophoresis; type: nucleic-acid assay
Nucleic Acid [29] = experiment: Binding affinity to Escherichia coli pUC19 DNA assessed as form 1 DNA level at 0.175 mM after 4.95 hrs by agarose gel electrophoresis; type: nucleic-acid assay
HL-60 [30] = experiment: Growth inhibition of human HL60 cells at 100 uM after 72 hrs by MTT assay; type: functional; design: scale not given: the % may be the effect or the level left
Nucleic Acid [31] = experiment: Binding affinity to Escherichia coli pUC19 DNA assessed as form 1 DNA level at 0.463 mM by agarose gel electrophoresis; type: nucleic-acid assay
HeLa [32] = experiment: Growth inhibition of human HeLa cells at 100 uM after 72 hrs by MTT assay; type: functional; design: scale not given: the % may be the effect or the level left
Nucleic Acid [33] = experiment: Binding affinity to Escherichia coli pUC19 DNA assessed as form 1 DNA level at 0.175 mM after 9.07 hrs by agarose gel electrophoresis; type: nucleic-acid assay
Nucleic Acid [34] = experiment: Binding affinity to Escherichia coli pUC19 DNA assessed as form 2 DNA level at 0.463 mM by agarose gel electrophoresis; type: nucleic-acid assay
Nucleic Acid [35] = experiment: Binding affinity to Escherichia coli pUC19 DNA assessed as form 2 DNA level at 0.175 mM after 13.07 hrs by agarose gel electrophoresis; type: nucleic-acid assay
Nucleic Acid [36] = experiment: Binding affinity to Escherichia coli pUC19 DNA assessed as form 1 DNA level at 0.463 mM after 11.30 hrs by agarose gel electrophoresis; type: nucleic-acid assay
Nucleic Acid [37] = experiment: Binding affinity to Escherichia coli pUC19 DNA assessed as form 1 DNA level at 0.320 mM after 9.07 hrs by agarose gel electrophoresis; type: nucleic-acid assay
HL-60 [38] = experiment: Growth inhibition of human HL60 cells at 1000 uM after 72 hrs by MTT assay; type: functional; design: scale not given: the % may be the effect or the level left
Nucleic Acid [39] = experiment: Binding affinity to Escherichia coli pUC19 DNA assessed as form 2 DNA level at 0.698 mM after 9.07 hrs by agarose gel electrophoresis; type: nucleic-acid assay
Nucleic Acid [40] = experiment: Binding affinity to Escherichia coli pUC19 DNA assessed as form 1 DNA level at 0.463 mM after 4.42 hrs by agarose gel electrophoresis; type: nucleic-acid assay
Nucleic Acid [41] = experiment: Binding affinity to Escherichia coli pUC19 DNA assessed as form 1 DNA level at 0.320 mM after 27.33 hrs by agarose gel electrophoresis; type: nucleic-acid assay
Nucleic Acid [42] = experiment: Binding affinity to Escherichia coli pUC19 DNA assessed as form 2 DNA level at 0.463 mM after 11.30 hrs by agarose gel electrophoresis; type: nucleic-acid assay
Nucleic Acid [43] = experiment: Binding affinity to Escherichia coli pUC19 DNA assessed as form 2 DNA level at 0.698 mM after 23.12 hrs by agarose gel electrophoresis; type: nucleic-acid assay
Nucleic Acid [44] = experiment: Binding affinity to Escherichia coli pUC19 DNA assessed as form 2 DNA level at 0.175 mM after 9.07 hrs by agarose gel electrophoresis; type: nucleic-acid assay
Nucleic Acid [45] = experiment: Binding affinity to Escherichia coli pUC19 DNA assessed as form 2 DNA level at 0.175 mM by agarose gel electrophoresis; type: nucleic-acid assay
Nucleic Acid [46] = experiment: Binding affinity to Escherichia coli pUC19 DNA assessed as form 1 DNA level at 0.320 mM by agarose gel electrophoresis; type: nucleic-acid assay

Cl.Cl.NNC1=NCCN1
Activity (Nucleic Acid [1]): 92% | Activity (Nucleic Acid [2]): 4.78% | Activity (Nucleic Acid [3]): 5.87% | Activity (Nucleic Acid [4]): 92.4% | Activity (Nucleic Acid [5]): 6.09% | Activity (Nucleic Acid [6]): 90.3% | Activity (Nucleic Acid [7]): 96.9% | Activity (Nucleic Acid [8]): 95.8% | Activity (Nucleic Acid [9]): 3.24% | Activity (Nucleic Acid [10]): 27.8% | Activity (Nucleic Acid [11]): 2.13% | Activity (HeLa [12]): 1% | Activity (Nucleic Acid [13]): 95.2% | Activity (Nucleic Acid [14]): 85.8% | Activity (Nucleic Acid [15]): 93.9% | Activity (Nucleic Acid [16]): 7.99% | Activity (Nucleic Acid [17]): 1.43% | Activity (Nucleic Acid [18]): 1.52% | Activity (Nucleic Acid [19]): 97.9% | Activity (Nucleic Acid [20]): 2.64% | Activity (HL-60 [21]): 1% | Activity (Nucleic Acid [22]): 98.5% | Activity (HeLa [23]): 2% | Activity (Nucleic Acid [24]): 9.67% | Activity (Nucleic Acid [25]): 99.6% | Activity (Nucleic Acid [26]): 5.03% | Activity (Nucleic Acid [27]): 7.62% | Activity (Nucleic Acid [28]): 95% | Activity (Nucleic Acid [29]): 98.6% | Activity (HL-60 [30]): 4% | Activity (Nucleic Acid [31]): 97.6% | Activity (HeLa [32]): 1% | Activity (Nucleic Acid [33]): 98.2% | Activity (Nucleic Acid [34]): 2.43% | Activity (Nucleic Acid [35]): 3.07% | Activity (Nucleic Acid [36]): 92.9% | Activity (Nucleic Acid [37]): 94.1% | Activity (HL-60 [38]): 57% | Activity (Nucleic Acid [39]): 4.22% | Activity (Nucleic Acid [40]): 97.4% | Activity (Nucleic Acid [41]): 72.2% | Activity (Nucleic Acid [42]): 7.13% | Activity (Nucleic Acid [43]): 14.2% | Activity (Nucleic Acid [44]): 1.8% | Activity (Nucleic Acid [45]): 0.4% | Activity (Nucleic Acid [46]): 96.8%
